The subject of one test is wild henbit. Nature of the test: Herbicidal spray treatment on henbit under winter field conditions. The test is classed as in vivo, henbit (Lamium amplexicaule). Here is the method:
FIG. 1 is an image showing results of tests used to determine the herbicidal activity of a spray treatment comprising the use of a 5% solution of 2-undecanone in ethanol. The image was captured approximately 2 hours after the spray-applications of materials to henbit under winter field conditions. Both of the weed groups shown in FIG. 1 are groups of wild henbit. Treatment of the group of henbit plants on the left side of FIG. 1 (control group) consisted of spraying the group with 100 ml of the carrier as a fine mist; the carrier comprised absolute ethanol (without the herbicide). Treatment of the group of henbit plants on the right side of FIG. 1 (treatment group) consisted of spraying the group with 100 ml of the herbicide/carrier mixture (5 wt % of 2-undecanone/100 mL solution) as a fine mist. The image was captured 2 hours after treatment.
Because the sprayer produced a very fine mist in each case, and there may have been spray drift (from the wind) during these treatments, evaporation and dissipation of these misty sprays occurred to some degree before and while each spray hit its targeted group of plant material.
Experiment 2 is similar to Experiment 1, in that it tests the herbicidal activity of an experimental spray treatment on henbit. The herbicidal spray treatments of Experiment 2 comprised the use of a 20% solution of 2-undecanone in ethanol (20 wt % of 2-undecanone/100 mL solution). The experimental results are featured in FIGS. 2A, 2B and 2C, the henbit treatment group receiving the 2-undecanone spray treatment is located on the right side of the image shown in FIG. 2A. The control group was treated with a spray comprising just the carrier (absolute ethanol); the henbit treatment group receiving this carrier-only spray treatment (control group) is located on the left side of the image shown in FIG. 2A. The image was captured 4 days after the spray-applications of these materials to the groups of henbit under winter field conditions. […]

For a further test, the system named is bean plants. The experiment in a line: Herbicidal spray treatment on bean plants. The test is classed as in vivo. As to conditions: 20% solution (wt/vol) in absolute ethanol, sprayed to run off. Here is the method:
Experiment 3 exemplifies the herbicidal activity of 2-undecanone on bean plants. The bean plant on the left in FIG. 3 was treated with a 20% solution (wt/vol) of 2-undecanone in a carrier comprising absolute ethanol. The bean plant on the right was treated with the absolute ethanol carrier only. Treatments were made by spraying each plant until “run off” levels were achieved. […] In contrast, the plant on the right (ethanol control) never differed in appearance from the no-spray controls (not shown). […] All treatments of the bean plants described above were performed in North Carolina during the summer months under a shelter; the bean plants were protected from the elements but were watered regularly. The plants also received direct sunlight for about 8 hours from approximately noon until sunset.

Another test has as its system Tomato seedlings. Nature of the test: Greenhouse fine mist foliar spray on tomato seedlings. Format: in vivo. Here is the method:
(§1) This experiment was conducted in a greenhouse setting. Tomato seedlings in 4 to 6 true-leaf stage and 3-5 inch tall potato plants were treated with a fine mist spray comprising a solution of >2% 2-undecanone in 95% ethanol.

For a further test, the system named is potato plants. Nature of the test: Greenhouse fine mist foliar spray on potato plants. Format: in vivo. As to conditions: >2% in 95% ethanol. As for the experimental part:
as §1

In another test the test system is wild-type grass. The experiment in a line: Spray treatment of test plots of wild-type grass. The test is classed as in vivo, grass (monocotyledon). As for the experimental part:
Two experiments were initiated that tested the activity of an acyclic ketone on a common monocotyledon. The test plots comprised similar areas of wild-type grass. The area of each test plot of grass was defined to be the area within a square measuring approximately 15 inches on a side. The experiments were conducted using two different formulations of the same test material: the formulation tested in Experiment 6 comprised a 5% (wt/vol) mixture of undecanone in absolute ethanol; the formulation tested in Experiment 7 comprised a 5% (wt/vol) mixture of undecanone in water.
A measured amount of each formulation was sprayed onto its appropriate test area using a hand held spray bottle; the spray bottle produced a fine mist in each case. […] The details of each experiment are provided separately below.
In Experiment 6, 40 ml of a 5% formulation of the test material in ethanol (wt/vol) was evenly sprayed on one of two adjacent test plots of grass. This treated plot was located on the right side of the test plot pair. The adjacent test plot (left; control plot) was sprayed in an identical fashion with a spray bottle containing 40 mL of the ethanol carrier as a control; the time difference for completing the spraying of the two grassy test plots was less than 2 minutes. The effects of the spray formulations on the test plots were noted over time and images were captured at several time points for later comparisons (see FIGS. 5A, 5B and 5C for images). FIGS. 5A, 5B and 5C are images showing the effects of spraying a 5% formulation of the test material in ethanol and ethanol control on test plots of grass in accordance with embodiments of the present disclosure.
Visible differences were observed within a 30 minute period following the spray applications of control and test compound formulations comprising ethanol. […] The appearance of the plots at the one-hour time point are shown in the FIG. 5B image, and the appearance of the plots at the twenty four-hour time point are shown in the FIG. 5C image.
The conditions and amounts of materials used in Experiment 7 were similar to those employed in Experiment 6, with the exception that both the formulation comprising the active ingredient and the solution of carrier comprised water in the place of ethanol. In Experiment 7, the early toxicity effects were delayed compared to the early toxicity effects noted in Experiment 6. […] The appearance of the areas treated with the formulation comprising water were photographed at the 24 hour time point and can be seen in the image of FIG. 6B.

As for `CCCCCCCCCC(C)=O` [2-undecanone], the “changes in color and vitality of treated henbit plants” value in the test on wild henbit (5% solution in ethanol, 100 ml fine mist, below run-off, approximately 2 hours after treatment) is “had lost much of their green color and vitality, and had turned yellow”. The “overall state of treated henbit group versus control” value with wild henbit (20% (wt/vol) in absolute ethanol, 100 ml spray, 4 days after treatment) is reported as “appeared to be dead or dying”. In addition, the “effect on stems of treated henbit plants” value in the test with wild henbit (20% (wt/vol) in absolute ethanol, 100 ml spray, below run-off, 4 days after treatment) is “had become significantly weakened and had become flaccid”. Also, the “leaf color of treated bean plant” value in the test on bean plants (2 weeks after treatment) was “yellow”. The “onset of change in appearance of treated bean plant” value in the test on bean plants (day of treatment) is “started to change its appearance and character shortly after the spray treatment was complete”. Moreover, the “subsequent outcome after foliage death” value is reported as “plant death” in the test on Tomato seedlings (>2% in 95% ethanol, fine mist to foliage) and “plant death” with potato plants (fine mist to foliage). For the same compound, the “time to death of the plants' foliage” value in the test with Tomato seedlings (>2% in 95% ethanol, fine mist to foliage, seedlings in 4 to 6 true-leaf stage) was at most 24 h; with potato plants (3-5 inch tall plants), at most 24 h. In addition, the “effect on tomato plants at low concentration” value in the test on Tomato seedlings (less than 1% in 95% ethanol, similar application) was “death of foliage followed by re-foliation some days later”. Further, in the test with wild-type grass (Experiment 6: 5% (wt/vol) in ethanol, up to 24 hours), the “course of herbicidal toxicity over time” value is reported as “increase with time”. The “time to visible differences versus control plot” value with wild-type grass (Experiment 6: 40 ml of 5% (wt/vol) in ethanol) is at most 30 min. For the same compound, in the test with wild-type grass (Experiment 6: 40 ml of 5% (wt/vol) in ethanol, after 30 minutes), the “appearance of treated grass” value was “appeared brown”. Besides, the “time to first toxicity effects after spraying” value in the test on wild-type grass (Experiment 7: 5% (wt/vol) in water) lay in the range of 2 to 3 h. The “visual appearance of water-carrier plots compared with ethanol-carrier plots” value with wild-type grass (Experiment 7: 5% (wt/vol) in water, at 24 hours) is recorded as “similar”.

The values above are taken from patent US20130005573A1, “COMPOSITIONS AND METHODS OF USE FOR KETONES AND ALDEHYDES AS HERBICIDES” (North Carolina State University, priority 2010, published 2013).
